Reference: US9801888B2, “Pyrimidine compounds as mTOR and PI3K inhibitors” (DEVELOPMENT CENTER FOR BIOTECHNOLOGY, priority 2009, dated 2017)

Tests used:
PI3K (p110β/p85α) = experiment: PI3K HTRF enzyme assay, p110β/p85α; type: biochemical; conditions: compound at 500 nM; 100 μM ATP
Description: Recombinant PI3K (p110α/p85α) and PI3K (p110β/p85α) were from Millipore. […] Briefly, the compounds of interest dissolved in 100% DMSO were dispensed in all wells, following which the mixture of PIP2 and enzyme was added. PI3K (p110α/p85α) and PI3K (p110β/p85α) enzyme reactions were initiated in the presence of 10 μM and 100 μM ATP, respectively, and incubated for 30 min at room temperature. STOP solution prepared 2 hours prior to use was added to stop reactions, and mixed well. Detection solution prepared 2 hours prior to use was added, and incubated at room temperature for 17 hours in the dark. […] HTRF ration was calculated as follows: […]

recombinant mTOR = recombinant mTOR (Homo sapiens (Human), UniProt P42345); experiment: mTOR kinase assay (33P incorporation into 4EBP1); type: biochemical; conditions: compound at 10 μM; 10 μM ATP; versus DMSO control
Chain of recombinant mTOR (P42345 1360-2549): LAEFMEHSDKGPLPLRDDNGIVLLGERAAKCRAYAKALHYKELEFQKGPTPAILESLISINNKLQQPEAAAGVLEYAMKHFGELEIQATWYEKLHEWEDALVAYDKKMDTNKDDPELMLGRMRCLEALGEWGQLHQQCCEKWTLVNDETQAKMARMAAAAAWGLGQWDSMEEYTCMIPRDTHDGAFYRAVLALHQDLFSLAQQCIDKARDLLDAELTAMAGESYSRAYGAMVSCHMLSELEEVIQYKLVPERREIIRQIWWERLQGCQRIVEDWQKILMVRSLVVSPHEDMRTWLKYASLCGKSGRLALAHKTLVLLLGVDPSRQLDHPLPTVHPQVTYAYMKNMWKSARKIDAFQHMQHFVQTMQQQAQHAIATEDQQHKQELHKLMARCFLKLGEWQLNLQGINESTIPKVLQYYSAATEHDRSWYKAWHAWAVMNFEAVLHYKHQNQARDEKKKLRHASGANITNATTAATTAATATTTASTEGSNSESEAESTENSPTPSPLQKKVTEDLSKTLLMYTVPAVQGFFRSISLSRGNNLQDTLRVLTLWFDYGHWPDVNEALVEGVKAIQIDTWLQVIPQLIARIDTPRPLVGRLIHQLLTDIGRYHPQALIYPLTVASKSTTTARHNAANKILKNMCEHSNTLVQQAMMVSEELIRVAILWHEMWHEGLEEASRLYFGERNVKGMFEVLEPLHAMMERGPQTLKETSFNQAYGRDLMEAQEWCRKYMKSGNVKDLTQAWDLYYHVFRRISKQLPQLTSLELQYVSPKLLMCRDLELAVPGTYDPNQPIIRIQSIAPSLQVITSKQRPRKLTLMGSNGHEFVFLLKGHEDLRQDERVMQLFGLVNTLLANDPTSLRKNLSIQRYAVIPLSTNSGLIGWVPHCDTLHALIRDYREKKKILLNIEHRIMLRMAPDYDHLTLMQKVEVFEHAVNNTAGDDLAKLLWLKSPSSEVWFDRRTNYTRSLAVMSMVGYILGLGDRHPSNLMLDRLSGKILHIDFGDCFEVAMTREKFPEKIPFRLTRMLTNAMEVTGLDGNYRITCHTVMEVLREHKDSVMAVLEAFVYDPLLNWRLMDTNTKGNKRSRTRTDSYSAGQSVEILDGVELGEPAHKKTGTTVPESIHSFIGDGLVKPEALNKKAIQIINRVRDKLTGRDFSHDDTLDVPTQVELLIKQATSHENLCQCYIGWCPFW
Description: The activity of the compound against mTOR was examined by measuring the incorporation of ^33P from [γ-^33P]-ATP into 4EBP1. His-tagged, recombinant human 4EBP1 was expressed in E. coli, purified by nickel-nitrilotriacetic acid (Ni-NTA) resins, and stored at −80° C. Phosphorylation of 4EBP1 by mTOR was assayed in the presence or absence of the compound and performed in a final volume of 25 μl reaction buffer containing 300 ng 4EBP1, 50 ng recombinant mTOR (Invitrogen), 50 mM HEPES (pH 7.5), 1 mM EGTA, 0.01% Polysorbate 20, 10 mM MnCl2, 2.5 mM DTT, 10 μM ATP, and 0.5 μCi [γ-33P]-ATP (PerkinElmer) for 30 min at 30° C. The reactions were terminated by adding 3% phosphoric acid. The ^33P labeled 4EBP1 was transferred onto UniFilter-96 GF/B plate (PerkinElmer) and quantified by Top Count Microplate Scintillation Counter (PerkinElmer). For primary screening of kinase activity inhibition, each test compound was evaluated at […] in duplicate. […] The IC50 values of the compounds were determined after carrying out assays at eight serially diluted concentrations of each compound in duplicate. The results were analyzed using […] software (GraphPad Prism 5; GraphPad Software Inc.).
IC50 value is defined as the concentration of the test compound which achieves a half-maximal inhibition of the kinase activity.

SMILES | % inhibition @ 500 nM p110β (PI3K (p110β/p85α)) | % Inhibition @ 10 μM (recombinant mTOR)
CCOc1cnc(-c2ccc(NC(=O)Nc3ccc(N4CCOCC4=O)cc3)cc2)nc1-c1ccncc1 [MTR-0398, 1-[4-(5-Ethoxy-4-pyridin-4-yl-pyrimidin-2-yl)-phenyl]-3-[4-(3-oxo-morpholin-4-yl)-phenyl]-urea] | 21.80% | 
CCOc1c(CN2CCN(S(C)(=O)=O)CC2)nc(-c2ccc(NC(=O)Nc3ccccc3)cc2)nc1N1CCOCC1 [MTR-0169, 1-{4-[5-Ethoxy-4-(4-methanesulfonyl-piperazin-1-ylmethyl)-6-morpholin-4-yl-pyrimidin-2-yl]-phenyl}-3-phenyl-urea] | 3.20% | 
CCOC(=O)c1nc(-c2ccc(NC(=O)Nc3cccc(F)c3)cc2)nc(N2CCOCC2)c1OCC [MTR-0147, 5-Ethoxy-2-{4-[3-(3-fluoro-phenyl)-ureido]-phenyl}-6-morpholin-4-yl-pyrimidine-4-carboxylic acid ethyl ester] | 1.20% | 
COc1cnc(-c2ccc(NC(=O)Nc3cccc(F)c3)cc2)nc1N1CCOCC1 [MTR-0164, 1-(3-Fluoro-phenyl)-3-[4-(5-methoxy-4-morpholin-4-yl-pyrimidin-2-yl)-phenyl]-urea] | 42.10% | 

Second part, the compound after the results:

% inhibition @ 500 nM p110β (PI3K (p110β/p85α)) | % Inhibition @ 10 μM (recombinant mTOR) | SMILES
8.20% |  | CSc1cnc(-c2ccc(NC(=O)Nc3ccc(F)cc3)cc2)nc1N1CCOCC1 [MTR-0178, 1-(4-Fluoro-phenyl)-3-[4-(5-methylsulfanyl-4-morpholin-4-yl-pyrimidin-2-yl)-phenyl]-urea]
4.50% |  | CSc1c(Cl)nc(-c2ccc(N)nc2)nc1N1CCOCC1 [MTR-0133, 5-(4-Chloro-5-methylsulfanyl-6-morpholin-4-yl-pyrimidin-2-yl)-pyridin-2-ylamine]
14.20% |  | CSc1c(Cl)nc(-c2ccc(NC(=O)Nc3ccc(F)cc3)cc2)nc1N1CCOCC1 [MTR-0135, 1-[4-(4-Chloro-5-methylsulfanyl-6-morpholin-4-yl-pyrimidin-2-yl)-phenyl]-3-(4-fluoro-phenyl)-urea]
44.80% |  | CSc1c(OCCN(C)C)nc(-c2cccc(O)c2)nc1N1CCOCC1 [MTR-0043, 3-[4-(2-Dimethylamino-ethoxy)-5-methylsulfanyl-6-morpholin-4-yl-pyrimidin-2-yl]-phenol]
 | 88% | COc1c(-c2ccc(N)cc2)nc(-c2ccc(N)cc2)nc1N1CCOCC1 [MTR-0483]
